From patent publication US5294633A, “Imidazolyl-propenoic acid derivatives” (Bayer Aktiengesellschaft, priority 1991, dated 1994)
In brackets after ≈: the same amount, converted by molar mass.

Test system: isolated rabbit aorta (contractions induced by angiotensin II)
Test: Inhibition of the contraction induced with angiotensin II in isolated rabbit aorta rings
Conditions: Oryctolagus cuniculus; isolated aorta rings of rabbits in vitro; effect at 3rd = submaximal agonist concentration; read-out: IC50 (g/ml) with respect to contractions induced by AII
Protocol: Rabbits of both sexes are anaesthetized by a blow to the neck and bled out, or alternatively anaesthetized with Nembutal (about 60-80 mg/kg i.v.) and sacrificed by opening the thorax. The thorax aorta is taken out, freed from adhering connective tissue, divided into 1. 5 Mm wide ring segments and these are individually transferred under an initial loading of about 3.5 g to 10 ml organ baths containing 95% O2 /5% CO2 -aerated Krebs-Henseleit nutrient solution thermostated at 37° C. and of the following composition: 119 mmol/l NaCl; 2.5 mmol/l CaCl2 ×2H2 O; 1.2 mmol/l KH2 PO4; 10 mmol/l glucose; 4.8 mmol/l KCl; 1.4 mmol/l MgSO4 ×7 H2 O and 25 mmol/l NaHCO3.
The contractions are detected isometrically by Statham UC2 cells by means of a bridge amplifier (ifd Mulheim or DSM Aalen) and digitized and evaluated by means of an A/D converter (System 570, Keithley, Munich). The agonist dose-response curves (DRC) are carried out hourly. With each DRC, 3 or 4 individual concentrations are applied to the baths at 4 min intervals. […]
The height of, in the normal case, the 3rd DRC is used as a reference quantity for the assessment of the test substance to be investigated in further passages, which test substance is applied to the baths in increasing dose in each case at the start of the incubation time in the following DRCs. […]

| IC50 [µg/mL] | SMILES |
| --- | --- |
| 0.021 (≈ 0.0454 µM) | CCCCc1nc(Cl)c(/C=C/C(=O)O)n1Cc1ccc(-c2ccccc2-c2nnn[nH]2)cc1 [Example 2, (E)-3-[2-n-Butyl-4-chloro-1-{(2'-(tetrazol-5-yl)biphenyl-4-yl)methyl}-1H-imidazol-5-yl]-2-propenoic acid] |
| 0.025 (≈ 0.0509 µM) | CCCCc1nc(Cl)c(/C=C/C(=O)OCC)n1Cc1ccc(-c2ccccc2-c2nnn[nH]2)cc1 [Example 1, Ethyl (E)-3-[2-n-butyl-4-chloro-1-{(2'-(tetrazol-5-yl)biphenyl-4-yl)methyl}-1H-imidazol-5-yl]-2-propenoate] |
